According to US10653741B2, “Herbo-mineral formulation for the treatment of cardio vascular diseases and method of preparation thereof” (Muniyal Ayurvedic Research Centre, priority 2017, dated 2020):

Experiments:
[1] = Body weight, ISP induced myocardial infarction study; format: in vivo, Sprague-Dawley rats; details: Carvedilol 2 mg/kg + ISP, Mean ± SEM
Excerpt: (§1) Animals: 35 male Sprague-Dawley rats of 150-200 g body weight were selected for the study. Animals were housed in individual polycarbonate cages in a well-ventilated room under an ambient temperature of 23±2 degree C. and 40-65% relative humidity, with artificial photoperiod 12-h light/12-h dark cycle. They were provided with standard rodent pellet diet (Nutrilab Rodent, Tetragon Chemie, India) and purified water ad libitum (RIOS, USA). Experimental animals were acclimatized for 7 days to the laboratory conditions prior to experimentation. The study protocol was approved by Institutional Animal Ethical Committee (IAEC).
(§2) Experimental groups and design: Rats were randomized into 5 groups based on the body weight. ISP (120 mg/kg) was injected subcutaneously to rats on 19th and 21st day to induce experimental myocardial infarction. Test drug was orally administered throughout the study. • Group I (Normal control): 0.5% CMC • Group II (Positive control): 0.5% CMC+ISP (120 mg/kg) • Group III (Standard): Carvedilol (2 mg/kg/day, p.o)+ISP (120 mg/kg, s.c.) • Group IV (Low dose): Test drug (50 mg/kg/day, p.o)+ISP (120 mg/kg, s.c.) • Group V (High dose): Test drug (100 mg/kg/day, p.o)+ISP (120 mg/kg, s.c.)
(§3) The change in body weight was recorded every week. At the end of the experiment, blood was collected and the plasma was separated for biochemical investigation. The animals were euthanized and the organs (heart, Kidney and adrenals) were dissected out and weighed. Heart homogenate was used for further analysis and LV was separated for the analysis of apoptotic marker gene expression as depicted in the various examples hereunder.

[2] = Organ weight, ISP induced myocardial infarction study; format: in vivo, Sprague-Dawley rats; details: Carvedilol 2 mg/kg + ISP
Excerpt: as §1, §2, §3

Organ weight: Adrenals ([2]; Mean ± SEM): 0.02 ± 0.00 g | Organ weight: Kidney ([2]; Mean ± SEM): 0.68 ± 0.10 g
SMILES: COc1ccccc1OCCNCC(O)COc1cccc2[nH]c3ccccc3c12 (centres unmarked) [Carvedilol]
Body weight ([1]; 0th day): 211.00 ± 1.70 g | Body weight ([1]; 7th day): 210.57 ± 3.22 g | Body weight ([1]; 14th day): 218.43 ± 4.37 g | Body weight ([1]; 21st day): 216.43 ± 1.58 g | Organ weight: Heart, percent in brackets (compared with Positive control) [2]: 13.1% | Organ weight: Heart ([2]; Mean ± SEM): 0.44 ± 0.07 g
